Assay results as given in article PMC3914206.

Legend:
Type in all cases: binding
Details in all cases: Compound Concentration 10 µM
panel of 442 kinases [1] = target: T1, panel of 442 kinases (Homo sapiens, UniProt O75676)
T1 construct: purchased KINOMEscan
Source text: (§1) We assessed the selectivity of members of this scaffold using the KINOMEscan methodology across a near comprehensive panel of 442 kinases [[18,27]].

panel of 442 kinases [2] = target: T2, panel of 442 kinases (Homo sapiens, UniProt Q8IVH8)
T2 construct: purchased KINOMEscan
T2 sequence (Q8IVH8 1-894): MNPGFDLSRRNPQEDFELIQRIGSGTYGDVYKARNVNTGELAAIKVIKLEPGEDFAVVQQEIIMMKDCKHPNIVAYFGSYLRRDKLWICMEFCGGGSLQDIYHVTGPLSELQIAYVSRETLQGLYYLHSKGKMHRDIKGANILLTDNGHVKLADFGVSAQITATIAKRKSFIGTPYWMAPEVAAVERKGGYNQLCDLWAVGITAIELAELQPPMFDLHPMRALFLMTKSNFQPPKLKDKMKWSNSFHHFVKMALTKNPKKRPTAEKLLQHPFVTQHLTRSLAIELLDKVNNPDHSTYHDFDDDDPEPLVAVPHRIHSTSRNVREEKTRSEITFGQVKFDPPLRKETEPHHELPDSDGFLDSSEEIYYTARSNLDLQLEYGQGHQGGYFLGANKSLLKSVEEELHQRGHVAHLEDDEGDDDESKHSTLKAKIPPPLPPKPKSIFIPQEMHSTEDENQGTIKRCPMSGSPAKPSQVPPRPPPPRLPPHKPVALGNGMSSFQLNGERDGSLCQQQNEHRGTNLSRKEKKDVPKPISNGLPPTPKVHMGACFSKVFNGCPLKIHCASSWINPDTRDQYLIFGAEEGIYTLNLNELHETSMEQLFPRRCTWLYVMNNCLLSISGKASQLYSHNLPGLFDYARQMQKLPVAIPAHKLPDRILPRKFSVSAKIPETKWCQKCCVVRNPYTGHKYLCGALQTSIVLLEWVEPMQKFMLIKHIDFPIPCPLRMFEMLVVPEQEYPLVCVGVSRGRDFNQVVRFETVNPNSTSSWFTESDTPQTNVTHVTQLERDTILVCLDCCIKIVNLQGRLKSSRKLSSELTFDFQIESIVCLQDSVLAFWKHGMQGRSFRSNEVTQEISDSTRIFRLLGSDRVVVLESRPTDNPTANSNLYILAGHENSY
Source text: as §1

panel of 442 kinases [3] = target: T3, panel of 442 kinases (Homo sapiens, UniProt Q9UIK4)
T3 construct: purchased KINOMEscan
Source text: as §1

T3 sequence (Q9UIK4 whole entry): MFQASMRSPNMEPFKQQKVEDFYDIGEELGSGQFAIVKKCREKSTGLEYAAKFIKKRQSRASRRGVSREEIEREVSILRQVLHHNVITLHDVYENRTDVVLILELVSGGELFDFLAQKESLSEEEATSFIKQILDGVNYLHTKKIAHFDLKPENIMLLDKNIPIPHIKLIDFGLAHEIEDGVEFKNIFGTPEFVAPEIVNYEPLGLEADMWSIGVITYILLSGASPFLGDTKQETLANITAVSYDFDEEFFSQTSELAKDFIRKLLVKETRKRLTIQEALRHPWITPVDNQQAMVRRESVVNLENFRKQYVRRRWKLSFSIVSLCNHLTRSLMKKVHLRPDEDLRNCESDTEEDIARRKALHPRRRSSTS
T1 sequence (O75676 whole entry): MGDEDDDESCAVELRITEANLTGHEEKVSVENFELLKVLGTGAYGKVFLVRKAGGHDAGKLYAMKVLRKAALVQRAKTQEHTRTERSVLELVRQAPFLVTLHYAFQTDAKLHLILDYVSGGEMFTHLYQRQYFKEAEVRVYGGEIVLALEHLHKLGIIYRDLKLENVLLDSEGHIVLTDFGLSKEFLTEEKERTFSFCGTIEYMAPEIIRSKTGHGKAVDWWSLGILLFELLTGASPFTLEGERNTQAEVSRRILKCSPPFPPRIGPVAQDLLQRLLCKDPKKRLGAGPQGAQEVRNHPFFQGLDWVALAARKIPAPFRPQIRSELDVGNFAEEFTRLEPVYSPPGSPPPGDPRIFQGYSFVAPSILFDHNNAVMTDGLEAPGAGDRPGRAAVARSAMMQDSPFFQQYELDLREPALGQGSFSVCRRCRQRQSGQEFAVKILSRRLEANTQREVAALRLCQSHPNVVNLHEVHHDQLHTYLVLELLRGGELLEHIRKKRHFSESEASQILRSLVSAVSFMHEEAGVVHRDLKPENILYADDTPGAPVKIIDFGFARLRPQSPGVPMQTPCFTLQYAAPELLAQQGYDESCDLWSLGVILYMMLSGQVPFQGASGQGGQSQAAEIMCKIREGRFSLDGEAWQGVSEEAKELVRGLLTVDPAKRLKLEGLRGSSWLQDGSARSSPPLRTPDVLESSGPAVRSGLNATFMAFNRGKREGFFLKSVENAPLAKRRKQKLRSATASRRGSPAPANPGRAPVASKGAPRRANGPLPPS

Compound | KINOMEscan: RPS6KA4(Kin.Dom.1-N-terminal) (panel of 442 kinases [1]) | KINOMEscan: RPS6KA4(Kin.Dom.2-C-terminal) (panel of 442 kinases [1]) | KINOMEscan: MAP4K3 (panel of 442 kinases [2]) | KINOMEscan: DAPK2 (panel of 442 kinases [3])
COc1cc(C(=O)N2CCC(N3CCN(C)CC3)CC2)ccc1Nc1ncc2c(n1)N(C1CCCC1)c1ccccc1C(=O)N2C [Compound 25, 11-cyclopentyl-2-((2-methoxy-4-(4-(4-methylpiperazin-1-yl)piperidine-1-carbonyl)phenyl)amino)-5-methyl-5H-benzo[e]pyrimido[5,4-b][1,4]diazepin-6(11H)-one] | 100 | 100 | 100 | 90
COc1cc(C(=O)N2CCC(N3CCN(C)CC3)CC2)ccc1Nc1ncc2c(n1)N1CCc3cccc(c31)C(=O)N2C [Compound 24] | – | 0.65 | – | 22
COc1cc(C(=O)N2CCC(N3CCN(C)CC3)CC2)ccc1Nc1ncc2c(n1)N(C)c1ccccc1C(=O)N2C [15 (LRRK2-IN-1)] | 100 | 46 | 71 | 67
CCOc1cc(C(=O)N2CCC(N3CCN(C)CC3)CC2)ccc1Nc1ncc2c(n1)N(C1CCCC1)c1ccccc1C(=O)N2C [Compound 26] | 100 | 100 | 98 | 99
